Test results: patent US20190290769A1, “Hydrogel Compositions” (The Trustees of the University of Pennsylvania, priority 2018, published 2019)
≈ marks a conversion by molar mass, not a printed value.

Tested on: T3565 cultured glioma stem cell
Assay: MTS assay of valproic acid on glioma stem cell viability
Format: cell-based
Details: T3565 cells, varying concentrations
Text: In vitro testing of valproic acid on glioma stem cell and non-stem cells.

## CCCC(CCC)C(=O)O [valproic acid]
  IC50: 600 µg/mL (≈ 4.16 mM)
